Results: ChEMBL document CHEMBL1201862, “PubChem BioAssay data set” (2004)
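Results reflect a 48-hour exposure of cells in 96-well plates to compound at five concentrations. GI50 marks 50% less growth.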 Calls of active or inactive are those of the source. No stated cut-off is given here; in the data, active = GI50 up to about 1.1 µM and inactive = higher.

How the values were obtained:
Test in all cases: NCI-60 cell line screen, 48 h
A549 = test system: A549
HCC 2998 = test system: HCC 2998
HCT-15 = test system: HCT-15
HL-60 = test system: HL-60
K562 = test system: K562
LOX IMVI = test system: LOX IMVI
MCF7 = test system: MCF7
NCI-H226 = test system: NCI-H226
NCI-H460 = test system: NCI-H460
NCI/ADR-RES = test system: NCI/ADR-RES
OVCAR-4 = test system: OVCAR-4
OVCAR-5 = test system: OVCAR-5
OVCAR-8 = test system: OVCAR-8
RPMI-8226 = test system: RPMI-8226
SF-268 = test system: SF-268
SK-OV-3 = test system: SK-OV-3
SN12C = test system: SN12C
U-251 = test system: U-251
UACC-257 = test system: UACC-257
M14 = test system: M14

SMILES | GI50 (A549) | GI50 (HCC 2998) | GI50 (HCT-15) [µM] | GI50 (HL-60) | GI50 (K562) | GI50 (LOX IMVI) | GI50 (MCF7) | GI50 (NCI-H226) | GI50 (NCI-H460) | GI50 (NCI/ADR-RES) | GI50 (OVCAR-4) | GI50 (OVCAR-5) | GI50 (OVCAR-8) | GI50 (RPMI-8226) | GI50 (SF-268) | GI50 (SK-OV-3) | GI50 (SN12C) | GI50 (U-251) | GI50 (UACC-257) | GI50 (M14)
CCOC(=O)c1ccc(N[C@@H]2c3cc4c(cc3C(c3cc(OC)c(O)c(OC)c3)[C@H]3C(=O)OCC32)OCO4)cc1O (stereo partly drawn) | 0.0946 µM (active) | 1.92 µM (inactive) | 1.09 | 0.133 µM (active) | 0.78 µM (active) | 0.185 µM (active) | 0.723 µM (active) | 0.256 µM (active) | < 0.01 µM (active) | 4.43 µM (inactive) | 7.69 µM (inactive) | 1.06 µM (active) | 1.77 µM (inactive) | 0.94 µM (active) | 0.789 µM (active) | 0.738 µM (active) | 1.64 µM (inactive) | 0.92 µM (active) | 2.91 µM (inactive) | 
CC(=O)OCC1OC(n2cc(F)c(=O)[nH]c2=O)C(NC(=O)OCc2ccccc2)C(OC(C)=O)C1OC(C)=O (stereo not drawn) | > 100 µM (inactive) | > 100 µM (inactive) | > 100 | > 100 µM (inactive) | > 100 µM (inactive) | > 100 µM (inactive) | > 100 µM (inactive) | > 100 µM (inactive) | > 100 µM (inactive) | > 100 µM (inactive) | > 100 µM (inactive) | > 100 µM (inactive) | > 100 µM (inactive) | > 100 µM (inactive) | > 100 µM (inactive) | > 100 µM (inactive) | > 100 µM (inactive) | > 100 µM (inactive) | > 100 µM (inactive) | 
CCCC(=O)Nc1cc(/C=C/C(=O)N2CC(CCl)c3c2cc(OCc2ccccc2)c2[nH]cc(C)c32)n(C)c1 (stereo not drawn) | 0.0219 µM (active) | 0.0253 µM (active) | 0.106 | 0.0259 µM (active) | 0.0373 µM (active) | 0.0817 µM (active) | 0.0025 µM (active) | 0.107 µM (active) | 0.0147 µM (active) | 0.0238 µM (active) | 0.069 µM (active) | 0.151 µM (active) | 0.0221 µM (active) | 0.0745 µM (active) | 0.0226 µM (active) | 0.199 µM (active) | 0.186 µM (active) | 0.0513 µM (active) | 0.105 µM (active) | 0.142 µM (active)
Nc1ncnc2c1ncn2[C@@H]1O[C@H](COP(=O)(O)O)[C@@H](O)[C@@H]1O | > 50 µM (inactive) | > 50 µM (inactive) | > 50 | 14.6 µM (inactive) | > 50 µM (inactive) | > 50 µM (inactive) | > 50 µM (inactive) | > 50 µM (inactive) | > 50 µM (inactive) | > 24.5 µM (inactive) | > 50 µM (inactive) | > 40.7 µM (inactive) | 12.9 µM (inactive) | > 50 µM (inactive) | > 50 µM (inactive) | > 50 µM (inactive) | > 50 µM (inactive) | > 50 µM (inactive) | > 50 µM (inactive) | 
COc1ccc2cc(/C=N/NC(=O)Nc3ccccc3)ccc2c1 |  | > 100 µM (inactive) | > 100 | > 100 µM (inactive) | > 100 µM (inactive) | > 100 µM (inactive) | > 100 µM (inactive) | > 100 µM (inactive) | > 100 µM (inactive) | > 100 µM (inactive) | > 100 µM (inactive) | > 100 µM (inactive) | > 100 µM (inactive) | > 100 µM (inactive) |  | > 100 µM (inactive) | > 100 µM (inactive) | > 100 µM (inactive) | > 100 µM (inactive) | > 100 µM (inactive)
O=NN(CCCl)C(=O)NC1CCSc2ccccc21 (stereo not drawn) | > 100 µM (inactive) | > 100 µM (inactive) | > 100 | 23.3 µM (inactive) | > 62.4 µM (inactive) | 82 µM (inactive) | > 100 µM (inactive) | > 100 µM (inactive) | > 69.3 µM (inactive) | > 100 µM (inactive) | > 100 µM (inactive) | > 100 µM (inactive) | > 100 µM (inactive) | > 61.4 µM (inactive) | 20.9 µM (inactive) | > 100 µM (inactive) | > 100 µM (inactive) | 58.2 µM (inactive) | > 100 µM (inactive) | 
C=C1C(=O)C[C@@]23CCC[C@@]12CC(O)C3 (stereo partly drawn) | 30.3 µM (inactive) | > 46.2 µM (inactive) | 13 | 19.5 µM (inactive) | 24.5 µM (inactive) | 14.6 µM (inactive) | 16.7 µM (inactive) | 21.2 µM (inactive) | 20.8 µM (inactive) | 13.4 µM (inactive) | 18.6 µM (inactive) | 23.4 µM (inactive) | 32.7 µM (inactive) | 15.6 µM (inactive) | 43.7 µM (inactive) | 28.1 µM (inactive) | 16.9 µM (inactive) | 40.3 µM (inactive) | 18.7 µM (inactive) | 
